The record followed here is publication PMC11450120, “One-pot synthesis, characterization and antiviral properties of new benzenesulfonamide-based spirothiazolidinones” (Molecular Diversity, 2024).

Read-outs that look alike come from different tables or passages of the source.

The test system of series [1] is influenza A/H1N1 (A/Virginia/ATCC3/2009) virus. The series is described as follows: Influenza virus CPE reduction assay in MDCK cells, A/H1N1. In kind it is cell-based.
The subject of series [2] is influenza A/H3N2 (A/HK/7/87) virus. As to the kind of experiment: Influenza virus CPE reduction assay in MDCK cells, A/H3N2. In kind it is cell-based.
Series [3] has as its system influenza B virus (B/Ned/537/05). The series is described as follows: Influenza virus CPE reduction assay in MDCK cells, influenza B. As to conditions: read-out: Antiviral EC50 Influenza B Microscopy. In kind it is cell-based.
Series [4] deals with Madin-Darby canine kidney (MDCK) cells. The note with it: for cytotoxicity at the highest concentration tested: at 100 μM.
A further series is described as follows: in vitro. As to conditions: dog.
The mark [5] stands for this setting: Influenza A virus, 96 h, CPE by microscopic scoring, 4 days at 35 °C, read-out: Antiviral EC50 Influenza A/H1N1 Microscopy.
Setting [6] is: Influenza A virus, 96 h, MTS cell viability assay, 4 days at 35 °C, read-out: Antiviral EC50 Influenza A/H1N1 MTS.
[7] abbreviates: Influenza A virus, H3N2, 96 h, CPE by microscopic scoring, 4 days at 35 °C, read-out: Antiviral EC50 Influenza A/H3N2 Microscopy.
The mark [8] stands for this setting: Influenza A virus, H3N2, 96 h, MTS cell viability assay, 4 days at 35 °C, read-out: Antiviral EC50 Influenza A/H3N2 MTS.
Setting [9] is: Influenza B virus, 96 h, CPE by microscopic scoring, 4 days at 35 °C.
Where [10] appears, read: Influenza A virus, read-out: EC50 against influenza A/H1N1 virus (range over microscopy and MTS).

For `COc1cc(S(N)(=O)=O)ccc1C(=O)NN1C(=O)C(C)SC12CCC(C(F)(F)F)CC2` (stereo not drawn) [3 g, 2-Methoxy-N-(2-methyl-3-oxo-1-thia-8-trifluoromethyl-4-azaspiro[4.5]decan-4-yl)-4-sulfamoylbenzamide], the melting point fell in the range of 210 to 214 °C. Besides, in series [1] (setting [5]), the EC50 is over 100000 nM. Further, the EC50 in series [1] (setting [6]) is over 100000 nM. The EC50 in series [2] (setting [7]) is over 100000 nM. In series [2] (setting [8]), the EC50 is over 100000 nM. The EC50 in series [3] (setting [9]) is over 100000 nM. Moreover, the “Cytotoxicity MCC (minimal cytotoxic concentration)” value (“Cytotoxicity MCC” for short) in series [4] (dog) is on record as 100 µM. The CC50 in “in vitro” is over 100 µM.
In turn, `COc1cc(S(N)(=O)=O)ccc1C(=O)NN1C(=O)C(C)SC12CCC(c1ccccc1)CC2` (stereo not drawn) [3 h, 2-Methoxy-N-(2-methyl-3-oxo-8-phenyl-1-thia-4-azaspiro[4.5]decan-4-yl)-4-sulfamoylbenzamide] registered a melting point of 290 to 292 °C. Moreover, the EC50 in series [1] (setting [5]) is over 100000 nM. Further, in series [1] (setting [6]), the EC50 was over 100000 nM. For the same compound, the EC50 in series [2] (setting [7]) was over 100000 nM. Besides, the EC50 in series [2] (setting [8]) was over 100000 nM. Also, in series [3] (setting [9]), the EC50 was over 100000 nM. The “Cytotoxicity MCC” value in series [4] (dog) was 100 µM. This compound returned a CC50 in “in vitro” of over 100 µM.
As to `O=C1c2c(O)c(=O)ccn2N([C@@H]2c3ccccc3SCc3c2ccc(F)c3F)[C@@H]2COCCN12` [BXA, baloxavir acid, reference compound], the EC50 came out at 1.5 nM in series [1] (MTS assay, BXA concentration unit nM, read-out: Antiviral EC50 Influenza A/H1N1 MTS); 1.8 nM in series [1] (microscopic scoring, BXA concentration unit nM, read-out: Antiviral EC50 Influenza A/H1N1 Microscopy); 1.7 nM in series [2] (MTS assay, BXA concentration unit nM, read-out: Antiviral EC50 Influenza A/H3N2 MTS); 2 nM in series [2] (microscopic scoring, BXA concentration unit nM, read-out: Antiviral EC50 Influenza A/H3N2 Microscopy); 8.3 nM in series [3] (microscopic scoring, BXA concentration unit nM). This compound displayed a CC50 in series [4] of over 20 nM. Moreover, the “Cytotoxicity MCC” value in series [4] was over 0.02 µM.
Take `COc1cc(S(N)(=O)=O)ccc1C(=O)NN1C(=O)C(C)SC12CCCC(C)C2` (stereo not drawn) [Compound 3a, 2-Methoxy-N-(2,7-dimethyl-3-oxo-1-thia-4-azaspiro[4.5]decan-4-yl)-4-sulfamoylbenzamide]: the melting point fell in the range of 261 to 264 °C. The EC50 in series [1] (setting [5]) was over 100000 nM. The EC50 in series [1] (setting [6]) stood at 76000 nM. In series [2] (setting [7]), the EC50 was over 100000 nM. Besides, the EC50 in series [2] (setting [8]) came out at 64000 nM. In series [3] (setting [9]), the EC50 was over 100000 nM. Moreover, the “Cytotoxicity MCC” value in series [4] (dog) is over 100 µM. Besides, the CC50 in the series “in vitro” was over 100 µM.
In turn, `COc1cc(S(N)(=O)=O)ccc1C(=O)NN1C(=O)C(C)SC12CCC(C)CC2` (stereo not drawn) [Compound 3b, 2-Methoxy-N-(2,8-dimethyl-3-oxo-1-thia-4-azaspiro[4.5]decan-4-yl)-4-sulfamoylbenzamide] gave a melting point of 258 to 261 °C. In series [1] (setting [5]), the EC50 is over 100000 nM. Further, the EC50 in series [1] (setting [6]) was over 100000 nM. In addition, in series [2] (setting [7]), the EC50 is over 100000 nM. For the same compound, the EC50 in series [2] (setting [8]) is over 100000 nM. Further, the EC50 in series [3] (setting [9]) was over 100000 nM. Also, the “Cytotoxicity MCC” value in series [4] (dog) is over 100 µM. This compound also returned a CC50 in “in vitro” of over 100 µM.
`CCC1CCC2(CC1)SC(C)C(=O)N2NC(=O)c1ccc(S(N)(=O)=O)cc1OC` (stereo not drawn) [Compound 3c, 2-Methoxy-N-(8-ethyl-2-methyl-3-oxo-1-thia-4-azaspiro[4.5]decan-4-yl)-4-sulfamoylbenzamide] registered a melting point of 270 to 272 °C. In series [1] (setting [5]), the EC50 is over 100000 nM. For the same compound, the EC50 in series [1] (setting [6]) worked out at 80000 nM. Besides, in series [2] (setting [7]), the EC50 is over 100000 nM. For the same compound, in series [2] (setting [8]), the EC50 was over 100000 nM. In addition, the EC50 in series [3] (setting [9]) was over 100000 nM. Moreover, in series [4] (dog), the “Cytotoxicity MCC” value is reported as 100 µM. This compound returned a CC50 in the series “in vitro” of over 100 µM.
Consider `CCCC1CCC2(CC1)SC(C)C(=O)N2NC(=O)c1ccc(S(N)(=O)=O)cc1OC` (stereo not drawn) [Compound 3d, 2-Methoxy-N-(2-methyl-3-oxo-8-propyl-1-thia-4-azaspiro[4.5]decan-4-yl)-4-sulfamoylbenzamide], for which the melting point fell in the range of 274 to 276 °C. Besides, in series [1], the “activity against influenza A/H1N1 virus (in words)” value was “weak activity”. Moreover, the EC50 in series [1] (setting [5]) amounted to 45000 nM. Besides, the EC50 in series [1] (setting [6]) was 39000 nM. Further, the EC50 in series [1] (setting [10]) lay in the range of 35000 to 45000 nM. Moreover, the EC50 in series [2] (setting [7]) was over 100000 nM. Besides, the EC50 in series [2] (setting [8]) was over 100000 nM. For the same compound, in series [3] (setting [9]), the EC50 is over 100000 nM. Also, the “cytotoxicity at the highest concentration tested” value in series [4] was “no cytotoxicity”. Besides, the “Cytotoxicity MCC” value in series [4] (dog) is 100 µM. Further, in the series “in vitro”, the CC50 is over 100 µM.
On to `COc1cc(S(N)(=O)=O)ccc1C(=O)NN1C(=O)C(C)SC12CCC(C(C)(C)C)CC2` (stereo not drawn) [Compound 3e, 2-Methoxy-N-(2-methyl-3-oxo-8-tert-butyl-1-thia-4-azaspiro[4.5]decan-4-yl)-4-sulfamoylbenzamide], for which the melting point was in the range of 301 to 304 °C. Besides, the “activity against influenza A/H1N1 virus (in words)” value in series [1] is given as “weak activity”. Besides, the EC50 in series [1] (setting [5]) stood at 45000 nM. Also, the EC50 in series [1] (setting [6]) was 35000 nM. Besides, in series [1] (setting [10]), the EC50 was in the range of 35000 to 45000 nM. Further, the EC50 in series [2] (setting [7]) is over 100000 nM. Besides, the EC50 in series [2] (setting [8]) was 68000 nM. The EC50 in series [3] (setting [9]) was over 100000 nM. Further, the “cytotoxicity at the highest concentration tested” value in series [4] is on record as “no cytotoxicity”. For the same compound, the “Cytotoxicity MCC” value in series [4] (dog) is recorded as over 100 µM. The CC50 in “in vitro” was over 100 µM.
In turn, `CCC(C)(C)C1CCC2(CC1)SC(C)C(=O)N2NC(=O)c1ccc(S(N)(=O)=O)cc1OC` (stereo not drawn) [Compound 3f, 2-Methoxy-N-(2-methyl-3-oxo-8-tert-pentyl-1-thia-4-azaspiro[4.5]decan-4-yl)-4-sulfamoylbenzamide] registered a melting point of 290 to 295 °C. Besides, the EC50 in series [1] (setting [5]) is over 100000 nM. In addition, in series [1] (setting [6]), the EC50 was over 100000 nM. The EC50 in series [2] (setting [7]) is over 100000 nM. Further, in series [2] (setting [8]), the EC50 was over 100000 nM. The EC50 in series [3] (setting [9]) was over 100000 nM. Besides, the “Cytotoxicity MCC” value in series [4] (dog) is listed as over 100 µM. In addition, in “in vitro”, the CC50 was over 100 µM.
Turning to `COc1cc(S(N)(=O)=O)ccc1C(=O)NN1C(=O)C(C)SC12CCC(C#N)(c1ccccc1)CC2` (stereo not drawn) [Compound 3i, 2-Methoxy-N-(8-cyano-2-methyl-3-oxo-8-phenyl-1-thia-4-azaspiro[4.5]decan-4-yl)-4-sulfamoylbenzamide], the melting point was in the range of 265 to 270 °C. Besides, the EC50 in series [1] (setting [5]) is over 100000 nM. The EC50 in series [1] (setting [6]) stood at 74000 nM. Besides, the EC50 in series [2] (setting [7]) is over 100000 nM. For the same compound, the EC50 in series [2] (setting [8]) is over 100000 nM. For the same compound, the EC50 in series [3] (setting [9]) was over 100000 nM. For the same compound, in series [4] (dog), the “Cytotoxicity MCC” value was over 100 µM. This compound registered a CC50 in “in vitro” of over 100 µM.
`COc1cc(S(N)(=O)=O)ccc1C(=O)NN1C(=O)C(C)SC12CCC(NC(C)=O)CC2` (stereo not drawn) [Compound 3j, 2-Methoxy-N-(8-acetamido-2-methyl-3-oxo-1-thia-4-azaspiro[4.5]decan-4-yl)-4-sulfamoylbenzamide]: the EC50 in series [1] (setting [5]), in series [1] (setting [6]), in series [2] (setting [7]), in series [2] (setting [8]) and in series [3] (setting [9]) was over 100000 nM each time. Moreover, the “Cytotoxicity MCC” value in series [4] (dog) was over 100 µM. Moreover, the CC50 in the series “in vitro” is over 100 µM.
Consider `NC(=O)c1ncn([C@@H]2O[C@H](CO)[C@@H](O)[C@H]2O)n1` [Ribavirin, reference compound], for which the EC50 is 45000 nM in series [1] (setting [5]); 25000 nM in series [1] (setting [6]); 40000 nM in series [2] (setting [7]); 26000 nM in series [2] (setting [8]); 10000 nM in series [3] (setting [9]). Besides, the CC50 in the series “in vitro” was over 100 µM.
For `CC(=O)N[C@H]1[C@H]([C@H](O)[C@H](O)CO)OC(C(=O)O)=C[C@@H]1N=C(N)N` [Zanamivir, reference compound], the EC50 is over 100000 nM in series [1] (setting [5]); over 100000 nM in series [1] (setting [6]); under 800 nM in series [2] (setting [7]); under 800 nM in series [2] (setting [8]); under 800 nM in series [3] (setting [9]). Also, the “Cytotoxicity MCC” value in series [4] (dog) was over 100 µM. In addition, the CC50 in “in vitro” is over 100 µM.
